From ChEMBL document CHEMBL1131242, “6beta-Acetoxynortropane: a potent muscarinic agonist with apparent selectivity toward M2-receptors” (J Med Chem, 1998)

Legend:
[1] = molecular target: Muscarinic acetylcholine receptor M3 (Homo sapiens, UniProt P20309); assay: Inhibition of binding of [3H]quinuclidinyl benzilate to human Muscarinic acetylcholine receptor M3 in membranes of transfected CHO cells at 100 uM concentration; conditions: Membrane
[2] = molecular target: Muscarinic acetylcholine receptor M1 (Homo sapiens) (UniProt P11229); assay: Inhibition of binding of [3H]quinuclidinyl benzilate to human Muscarinic acetylcholine receptor M1 in membranes of transfected CHO cells at 300 uM concentration; conditions: Membrane
Chain of Muscarinic acetylcholine receptor M1 (Homo sapiens) (P11229 whole entry, looked up): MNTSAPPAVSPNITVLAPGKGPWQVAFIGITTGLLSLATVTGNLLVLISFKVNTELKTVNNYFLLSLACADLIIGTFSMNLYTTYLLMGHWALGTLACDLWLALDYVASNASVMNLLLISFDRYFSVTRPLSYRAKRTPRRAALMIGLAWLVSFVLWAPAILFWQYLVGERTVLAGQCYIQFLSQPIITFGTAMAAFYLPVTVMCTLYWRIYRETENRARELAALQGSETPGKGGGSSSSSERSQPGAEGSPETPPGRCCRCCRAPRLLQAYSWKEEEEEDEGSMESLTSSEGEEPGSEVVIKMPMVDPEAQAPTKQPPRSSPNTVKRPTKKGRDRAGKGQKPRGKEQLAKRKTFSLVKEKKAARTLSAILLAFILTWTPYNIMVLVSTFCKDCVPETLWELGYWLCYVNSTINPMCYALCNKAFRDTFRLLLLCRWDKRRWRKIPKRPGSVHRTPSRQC

Chain of Muscarinic acetylcholine receptor M3 (P20309 whole entry, looked up): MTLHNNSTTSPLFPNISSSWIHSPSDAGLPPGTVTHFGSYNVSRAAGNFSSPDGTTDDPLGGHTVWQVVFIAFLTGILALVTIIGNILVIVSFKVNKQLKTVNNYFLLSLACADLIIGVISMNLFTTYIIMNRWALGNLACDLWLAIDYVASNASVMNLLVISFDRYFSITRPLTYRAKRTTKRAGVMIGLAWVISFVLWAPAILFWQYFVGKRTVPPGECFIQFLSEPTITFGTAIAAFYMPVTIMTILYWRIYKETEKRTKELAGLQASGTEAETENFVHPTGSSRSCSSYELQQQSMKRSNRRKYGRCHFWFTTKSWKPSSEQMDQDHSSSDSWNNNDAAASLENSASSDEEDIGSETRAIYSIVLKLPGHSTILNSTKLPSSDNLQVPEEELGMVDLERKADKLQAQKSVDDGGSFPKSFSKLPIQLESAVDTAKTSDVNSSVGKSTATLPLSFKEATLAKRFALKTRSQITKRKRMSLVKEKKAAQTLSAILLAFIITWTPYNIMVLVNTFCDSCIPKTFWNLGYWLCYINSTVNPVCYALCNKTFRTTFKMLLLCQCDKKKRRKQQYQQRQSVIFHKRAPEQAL

For `CC(=O)OC(C)C[N+](C)(C)C` (configuration not stated) [METHACHOLINE], the inhibition [1] was 34% and the inhibition [2] was 8%.
